Values of other authors in US6963011B2, “N-(2-phenyl-3-aminopropyl)naphthamides” (Astrazeneca AB, priority 2000, dated 2005).
Where two headings read alike, the source gives them in different places. Non-standard residues stand in square brackets, D forms with d. Residues, ends and D or L forms follow the SMILES beside them. *: point of attachment. Cyclohexanecarbonyl = O=C(C1CCCCC1)*

Columns and labels:
[1] = not given; remark: listed apart in the source
[2] = Walsh et al., Psychopharmacology 121:186-191, 1995
[3] = Vassout et al., Neuropeptides 26/S1:38, 1994; only at 30 mg/kg bid
[4] = not given; remark: listed apart in the source
[5] = Teixeira et al., Eur J Pharmacol 311(1):7-14, 1996
[6] = Stratton et al., Eur. J. Pharmacol. 250:R11-12, 1993
[7] = Walsh et al., Psychopharmacology 121:186-191, 1995
[8] = Vassout et al., Neuropeptides 26/S1:38, 1994

| Compound | Outcome, Elevated plus-maze [5] | Outcome, Light-dark box [1, 6] | Outcome, Light-dark box [1, 7] | Outcome, Marmoset human intruder [2] | other results |
| --- | --- | --- | --- | --- | --- |
| CN(Cc1ccccc1)C(=O)[C@H](Cc1ccc2ccccc2c1)NC(=O)[C@@H]1C[C@@H](O)CN1C(=O)c1cn(C)c2ccccc12 [FK888] | anxiolytic | – | – | – | – |
| CC(=O)NC1(c2ccccc2)CCN(CC[C@H](CN(C)C(=O)c2ccccc2)c2ccc(Cl)c(Cl)c2)CC1 [SR48968] | anxiolytic | anxiolytic | anxiolytic | anxiolytic | – |
| COC1(C[S@@+]([O-])c2ccccc2)CCN(CCc2c[nH]c3ccc(F)cc23)CC1 [GR159897] | – | – | anxiolytic | anxiolytic | – |
| Cc1cc(C)cc(C(=O)N2CC[C@H](NCc3ccnc4ccccc34)C[C@H]2Cc2ccccc2)c1 [CGP 49823] | – | – | – | – | Outcome, Forced swim test (depression model) [3]: antidepressant; Outcome, Elevated plus-maze [8]: inactive; Outcome, Social interaction ([4]; File, Pharm Bio B 58(3):747-752, 1997): anxiolytic; Outcome, Social interaction test [4, 8]: anxiolytic |
| C[C@H](NC(=O)CNC(=O)C1CCCCC1)C(=O)N[C@H](Cc1c[nH]c2ccccc12)C(=O)N[C@@H](Cc1ccccc1)C(=O)N(C)C [GR100679] (Cyclohexanecarbonyl-GA[dW]F-NMe2) | – | anxiolytic | – | – | – |
